{"source": "paper PMC3579217", "about": "(Journal of molecular biology, 2012)", "target": "myrMA (myristoylated M-PMV matrix protein) (Mason-Pfizer monkey virus, UniProt P07567)", "sequence (P07567 2-118)": "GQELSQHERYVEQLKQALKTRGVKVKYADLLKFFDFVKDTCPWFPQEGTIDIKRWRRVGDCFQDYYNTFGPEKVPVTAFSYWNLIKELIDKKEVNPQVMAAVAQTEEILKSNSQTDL", "assay": "1H/[…] HSQC NMR titration", "format": "binding", "data": [{"compound": "CCCCCCCC(=O)OC[C@H](COP(=O)(O)O[C@@H]1[C@H](O)[C@H](O)[C@@H](OP(=O)(O)O)[C@H](OP(=O)(O)O)[C@H]1O)OC(=O)CCCCCCC", "note": "[C8-PI(4,5)P2]", "values": [{"measurement": "Kd", "result": "92.8 ± 7.5", "unit": "µM"}]}]}
